The values that follow come from patent US20260015350A1, “AZAQUINAZOLINE PAN-KRAS INHIBITORS” (Mirati Therapeutics, Inc., priority 2022, published 2026).

The term IC50 denotes the point on the concentration scale where inhibition reaches its midpoint.

Molecules are shown by their SMILES.

Experiment [1] concerns the target T1, KRas^G12S (Homo sapiens, UniProt P01116, G12S).
T1 construct: Biotinylated KRas (corresponding to amino acids 1-169, produced at Accelegan Inc.); biotin (biotinylated); purchased Accelegan Inc
Briefly: KRas binding assay (TR-FRET tracer displacement), KRas G12S. As to conditions: TR-FRET tracer displacement, KRas G12S. For orientation: In TR-FRET formats the signal depends on donor and acceptor labels being close together.

The target in experiment [2] is T2, KRas^G12D (Homo sapiens, UniProt P01116, G12D).
T2 construct: Biotinylated KRas (corresponding to amino acids 1-169, produced at Accelegan Inc.); biotin (biotinylated); purchased Accelegan Inc
Kind of experiment: KRas binding assay (TR-FRET tracer displacement), KRas G12D.

The target of experiment [3] is T3, KRas^G12V (Homo sapiens, UniProt P01116, G12V).
T3 construct: Biotinylated KRas (corresponding to amino acids 1-169, produced at Accelegan Inc.); biotin (biotinylated); purchased Accelegan Inc
Kind of experiment: KRas binding assay (TR-FRET tracer displacement), KRas G12V.

In experiment [4] the target is T4, KRas^G12C (Homo sapiens, UniProt P01116, G12C).
T4 construct: Biotinylated KRas (corresponding to amino acids 1-169, produced at Accelegan Inc.); biotin (biotinylated); purchased Accelegan Inc
Briefly: KRas binding assay (TR-FRET tracer displacement), KRas G12C. As to conditions: TR-FRET tracer displacement, KRas G12C.

Experiment [5] deals with T5, KRas^WT (Homo sapiens, UniProt P01116).
T5 construct: Biotinylated KRas (corresponding to amino acids 1-169, produced at Accelegan Inc.); biotin (biotinylated); purchased Accelegan Inc
Kind of experiment: KRas binding assay (TR-FRET tracer displacement), KRas WT. To be noted: TR-FRET tracer displacement, KRas WT.

The test system of experiment [6] is KRas-mediated phosphorylation of ERK in AsPC-1 cells. Briefly: Inhibition of KRas-mediated phosphorylation of ERK (Cisbio HTRF pERK), AsPC-1 cells. As to conditions: Homo sapiens, ASPC1, AsPC-1 cells; HTRF pERK. In kind it is cell-based. The procedure, abridged: (§1)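 6,000 cells/well; cpd 10 uM top, 3-fold x10, 0.8% DMSO final; 3 hr incubation; Min ctrl Trametinib 0.2 uM; lysis 40 min 4° C shaking; d2 + Cryptate Ab mix, 2 hr RT; HTRF read.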

Experiment [7] has as its system KRas-mediated phosphorylation of ERK in H727 cells. Briefly: Inhibition of KRas-mediated phosphorylation of ERK (Cisbio HTRF pERK), H727 cells. Format: cell-based. To be noted: Homo sapiens, NCI-H727, H727 cells; HTRF pERK. The method, boiled down:
as §1

Experiment [8] concerns KRas-mediated phosphorylation of ERK in H358 cells. Briefly: Inhibition of KRas-mediated phosphorylation of ERK (Cisbio HTRF pERK), H358 cells. To be noted: Homo sapiens, NCI-H358, HTRF pERK. Format: cell-based. The procedure, abridged: as §1
The subject of experiment [9] is KRas-mediated phosphorylation of ERK in MKN1 cells. Kind of experiment: Inhibition of KRas-mediated phosphorylation of ERK (Cisbio HTRF pERK), MKN1 cells. Format: cell-based. As to conditions: Homo sapiens, MKN-1. The procedure, abridged: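 HTRF pERK read-out; 6,000 cells/well, RPMI_10% FBS, overnight 37° C./5% CO2; 4 h covered incubation at RT before reading.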
Experiment [10] deals with KRas-mediated phosphorylation of ERK in A549 cells. Kind of experiment: Inhibition of KRas-mediated phosphorylation of ERK (Cisbio HTRF pERK), A549 cells. Format: cell-based. As to conditions: Homo sapiens, HTRF pERK. The method, boiled down: (§2)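 Signal read by HTRF (d2/Cryptate antibody pair, 2 hr room-temperature incubation on lysate). Cells: 6,000 per well, 3 hr compound exposure. Titration: 10 uM highest, 3-fold, 10 points.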

Experiment [11] has as its system KRas-mediated phosphorylation of ERK in H460 cells. Kind of experiment: Inhibition of KRas-mediated phosphorylation of ERK (Cisbio HTRF pERK), H460 cells. In kind it is cell-based. To be noted: Homo sapiens, NCI-H460, HTRF pERK. The procedure, abridged: as §1
Experiment [12] has as its system KRas-mediated phosphorylation of ERK in HCT116 cells. Kind of experiment: Inhibition of KRas-mediated phosphorylation of ERK (Cisbio HTRF pERK), HCT116 cells. Format: cell-based. As to conditions: Homo sapiens, HCT-116, HTRF pERK. The procedure, abridged: as §2

T5 sequence (P01116 1-169 isoform P01116-2): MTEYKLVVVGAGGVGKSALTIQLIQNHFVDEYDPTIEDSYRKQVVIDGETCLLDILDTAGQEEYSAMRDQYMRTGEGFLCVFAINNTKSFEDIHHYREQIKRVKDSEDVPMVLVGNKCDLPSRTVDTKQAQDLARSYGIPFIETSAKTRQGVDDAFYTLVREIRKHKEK
T1 sequence (P01116 1-169 isoform P01116-2 G12S): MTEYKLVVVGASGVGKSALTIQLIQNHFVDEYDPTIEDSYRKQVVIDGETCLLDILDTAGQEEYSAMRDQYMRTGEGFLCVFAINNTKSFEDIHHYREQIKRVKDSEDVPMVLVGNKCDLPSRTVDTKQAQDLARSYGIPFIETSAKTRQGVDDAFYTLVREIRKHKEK
T2 sequence (P01116 1-169 isoform P01116-2 G12D): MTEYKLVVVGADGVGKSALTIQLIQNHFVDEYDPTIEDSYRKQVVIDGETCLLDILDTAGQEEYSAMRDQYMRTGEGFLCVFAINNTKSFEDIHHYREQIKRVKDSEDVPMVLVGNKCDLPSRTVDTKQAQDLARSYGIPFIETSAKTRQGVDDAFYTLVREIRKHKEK
T4 sequence (P01116 1-169 isoform P01116-2 G12C): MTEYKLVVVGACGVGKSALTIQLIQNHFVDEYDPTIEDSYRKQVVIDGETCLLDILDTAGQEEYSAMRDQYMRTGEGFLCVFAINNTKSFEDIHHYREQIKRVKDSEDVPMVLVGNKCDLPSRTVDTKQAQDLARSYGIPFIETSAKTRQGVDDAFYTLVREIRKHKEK
T3 sequence (P01116 1-169 isoform P01116-2 G12V): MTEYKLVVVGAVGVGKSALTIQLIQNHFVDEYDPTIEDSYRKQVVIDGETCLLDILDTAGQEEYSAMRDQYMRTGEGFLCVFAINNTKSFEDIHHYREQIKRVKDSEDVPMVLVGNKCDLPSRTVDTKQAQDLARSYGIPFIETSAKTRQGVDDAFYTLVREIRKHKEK

Regarding `CCc1c(F)ccc2cc(O)cc(-c3nc4c5c(nc(OC[C@@]67CCCN6C[C@H](F)C7)nc5c3F)NCCO4)c12` [Example 803, 5-ethyl-6-fluoro-4-(4-fluoro-2-(((2R,7aS)-2-fluorotetrahydro-1H-pyrrolizin-7a(5H)-yl)methoxy)-9,10-dihydro-8H-7-oxa-1,3,6,10-tetraazacyclohepta[de]naphthalen-5-yl)naphthalen-2-ol], the IC50 in experiment [1] was 14 nM; in experiment [2] it was 14 nM; in experiment [3], 9 nM; in experiment [4] it was 11 nM; in experiment [5], 20 nM.
For `CCc1c(F)ccc2cc(O)cc(-c3ncc4c(N5CC6CCC(C5)S6)nc(OC[C@@]56CCCN5C[C@H](F)C6)nc4c3F)c12` [Example 922, 4-(4-(8-thia-3-azabicyclo[3.2.1]octan-3-yl)-8-fluoro-2-(((2R,7aS)-2-fluorotetrahydro-1H-pyrrolizin-7a(5H)-yl)methoxy)pyrido[4,3-d]pyrimidin-7-yl)-5-ethyl-6-fluoronaphthalen-2-ol], the IC50 turned out to be 9 nM in experiment [1]; 74 nM in experiment [2]; 1380 nM in [6]; 13 nM in [3]; 18 nM in experiment [4]; 21 nM in [5]. Half-maximal inhibition in [7] (IC50) required 576 nM.
As to `C=C1CN2CCCC2(COc2nc(N3CCCC4(CC(=O)N4)C3)c3cnc(-c4cc(O)cc5ccc(F)c(CC)c45)c(F)c3n2)C1` (stereo not shown) [Example 943, 6-(7-(8-ethyl-7-fluoro-3-hydroxynaphthalen-1-yl)-8-fluoro-2-((2-methylenetetrahydro-1H-pyrrolizin-7a(5H)-yl)methoxy)pyrido[4,3-d]pyrimidin-4-yl)-1,6-diazaspiro[3.5]nonan-2-one], the concentration for half-maximal inhibition (IC50) in experiment [8] was 4 nM; in experiment [1] it was under 2 nM; in experiment [2] it was under 2 nM; in experiment [6], 32 nM; in [9], 0.4 nM; in [10], 27 nM. In addition, the concentration for half-maximal inhibition (IC50) was under 2 nM in experiment [3], under 2 nM in experiment [4], under 2 nM in experiment [5] and 50 nM in [7].
Consider `C=C1CN2CC(=C)CC2(COc2nc(N3C[C@@H]4C[C@H](C3)[C@H](O)C4)c3cnc(-c4cc(O)cc5ccc(F)c(CC)c45)c(F)c3n2)C1` [Example 796, (1R,5R,6R)-3-(2-((2,6-dimethylenetetrahydro-1H-pyrrolizin-7a(5H)-yl)methoxy)-7-(8-ethyl-7-fluoro-3-hydroxynaphthalen-1-yl)-8-fluoropyrido[4,3-d]pyrimidin-4-yl)-3-azabicyclo[3.2.1]octan-6-ol], for which the half-maximal inhibitory concentration (IC50) was 5 nM in experiment [8]; under 2 nM in experiment [1]; under 2 nM in experiment [2]; 21 nM in experiment [6]; 2 nM in [9]; 7 nM in experiment [10]. The IC50 in [3] was under 2 nM; in experiment [4], under 2 nM; in experiment [11], 8 nM; in [5] it was under 2 nM; in experiment [7], 12 nM; in experiment [12], 37 nM.
Take `CCc1c(F)ccc2cc(O)cc(-c3ncc4c(N5C[C@@H]6C[C@H](C5)[C@H](O)C6)nc(OCC56CCCN5C/C(=C/F)C6)nc4c3F)c12` (stereo partly drawn) [Example 930, (1R,5R,6R)-3-(7-(8-ethyl-7-fluoro-3-hydroxynaphthalen-1-yl)-8-fluoro-2-(((E)-2-(fluoromethylene)tetrahydro-1H-pyrrolizin-7a(5H)-yl)methoxy)pyrido[4,3-d]pyrimidin-4-yl)-3-azabicyclo[3.2.1]octan-6-ol]: the IC50 in experiment [8] was 1 nM; in experiment [1], under 2 nM; in experiment [2] it was under 2 nM; in [6], 13 nM; in experiment [10], 3 nM; in experiment [3], under 2 nM. In addition, the IC50 in experiment [4] was under 2 nM; in [5], under 2 nM; in experiment [7], 4 nM.
Regarding `C=C1CN2CCCC2(COc2nc(N3CC4C(=O)NC(=O)C4C3)c3cnc(-c4cc(O)cc5ccc(F)c(CC)c45)c(F)c3n2)C1` (stereo not shown) [Example 947, 5-(7-(8-ethyl-7-fluoro-3-hydroxynaphthalen-1-yl)-8-fluoro-2-((2-methylenetetrahydro-1H-pyrrolizin-7a(5H)-yl)methoxy)pyrido[4,3-d]pyrimidin-4-yl)tetrahydropyrrolo[3,4-c]pyrrole-1,3(2H,3aH)-dione], the IC50 in [8] is 29 nM; in experiment [1], under 2 nM; in experiment [2], under 2 nM; in [6], 157 nM; in experiment [9], 4 nM; in experiment [10], 119 nM. Besides, the IC50 in experiment [3] is under 2 nM; in experiment [4], under 2 nM; in [5] it was under 2 nM; in experiment [7] it was 352 nM.
For `CCc1c(F)ccc2cc(O)cc(-c3ncc4c(N5C[C@@H]6C[C@H](C5)[C@H](O)C6)nc(OC[C@@H]5CC[C@H]6COCCN65)nc4c3F)c12` [Example 945, (1R,5R,6R)-3-(7-(8-ethyl-7-fluoro-3-hydroxynaphthalen-1-yl)-8-fluoro-2-(((6S,8aS)-hexahydro-1H-pyrrolo[2,1-c][1,4]oxazin-6-yl)methoxy)pyrido[4,3-d]pyrimidin-4-yl)-3-azabicyclo[3.2.1]octan-6-ol], the half-inhibitory concentration (IC50) in [8] was 12 nM; in experiment [1], under 2 nM; in experiment [2], 6 nM; in experiment [6] it was 79 nM; in [9], 0.2 nM; in [10], 46 nM. The IC50 came to 3 nM in experiment [3]; 4 nM in experiment [4]; 29 nM in experiment [11]; 3 nM in experiment [5]; 29 nM in experiment [7]; 40 nM in [12].
As for `C[C@@H]1C[C@@H]1c1c(Cl)cc(O)cc1-c1ncc2c(N3CCC[C@]4(C3)NC(=O)NC4=O)nc(OC[C@@]34CCCN3C[C@H](F)C4)nc2c1F` [Example 932, (R)-7-(7-(3-chloro-5-hydroxy-2-((1S,2R)-2-methylcyclopropyl)phenyl)-8-fluoro-2-(((2R,7aS)-2-fluorotetrahydro-1H-pyrrolizin-7a(5H)-yl)methoxy)pyrido[4,3-d]pyrimidin-4-yl)-1,3,7-triazaspiro[4.5]decane-2,4-dione], the IC50 in [8] is 23 nM; in [1] it was under 2 nM; in experiment [2], under 2 nM; in experiment [6] it was 139 nM; in [9], 3 nM; in experiment [10], 69 nM. The concentration for half-maximal inhibition (IC50) in [3] was under 2 nM; in [4] it was under 2 nM; in experiment [11] it was 33 nM; in experiment [5], under 2 nM; in experiment [7] it was 225 nM; in experiment [12], 130 nM.
Regarding `C=C1CN2CCCC2(COc2nc(N3CCCC4(CC(O)C4)C3)c3cnc(-c4cc(O)cc5ccc(F)c(CC)c45)c(F)c3n2)C1` (stereo not shown) [Example 934, 6-(7-(8-ethyl-7-fluoro-3-hydroxynaphthalen-1-yl)-8-fluoro-2-((2-methylenetetrahydro-1H-pyrrolizin-7a(5H)-yl)methoxy)pyrido[4,3-d]pyrimidin-4-yl)-6-azaspiro[3.5]nonan-2-ol], the half-inhibitory concentration (IC50) is 1 nM in [8]; under 2 nM in experiment [1]; under 2 nM in [2]; 11 nM in [6]; 0.2 nM in [9]; 7 nM in [10]. Besides, the IC50 in [3] was under 2 nM; in [4], under 2 nM; in experiment [5], under 2 nM; in experiment [7] it was 6 nM.
In the case of `C#Cc1c(F)ccc2cc(O)cc(-c3ncc4c(N5CCCC6(CCO6)C5)nc(OC[C@@]56CCCN5C[C@H](F)C6)nc4c3F)c12` (stereo partly drawn) [Example 935, 5-ethynyl-6-fluoro-4-(8-fluoro-2-(((2R,7aS)-2-fluorotetrahydro-1H-pyrrolizin-7a(5H)-yl)methoxy)-4-(1-oxa-6-azaspiro[3.5]nonan-6-yl)pyrido[4,3-d]pyrimidin-7-yl)naphthalen-2-ol], the half-maximal inhibitory concentration (IC50) in experiment [1] came to 5 nM; in experiment [2], 4 nM; in experiment [6], 70 nM; in experiment [3] it was 4 nM; in [4], 7 nM; in experiment [5] it was 7 nM. The same compound displayed a 50% inhibitory concentration (IC50) in [7] of 73 nM.
